# Assay results reported in article PMC8421423, “Cellular model system to dissect the isoform-selectivity of Akt inhibitors” (Nature Communications, 2021).
# Where “and” joins values, the source holds several entries; their conditions need not be identical. Identical values can stand only once. Like-named read-outs stand apart in the source and are kept apart here.
# Legend:
# Akt2 = Akt2 (Homo sapiens, UniProt P31751); assay: STK HTRF KinEASE activity-based assay (IC50)
# Procedure: The biochemical half maximal inhibitory concentrations (IC50) were determined with the STK HTRF KinEASE assay (Cisbio) according to the manufactor’s instructions. Briefly: 5 µL Kinase solution and 2.5 µL inhibitor solution (8% DMSO in HTRF buffer) were incubated for 1 h before the reaction was started by addition of 2.5 µL starting solution containing ATP and substrate peptide. […] After reaction completion (Akt1: 60 min, Akt2: 20 min, Akt3: 15 min), 10 µL of stop solution were added. […] The quotient of both intensities were recorded at eight different inhibitor concentrations and data fit to a Hill 4-parameter equation with Quattro software suite (Quattro Research GmbH, Martinsried, Germany). Each reaction was performed in duplicates and at least three independent determinations of each IC50 were made.
# Akt3 = Akt3 (Homo sapiens, UniProt Q9Y243); assay: STK HTRF KinEASE activity-based assay (IC50)
# Chain of Akt3 (Q9Y243 whole entry): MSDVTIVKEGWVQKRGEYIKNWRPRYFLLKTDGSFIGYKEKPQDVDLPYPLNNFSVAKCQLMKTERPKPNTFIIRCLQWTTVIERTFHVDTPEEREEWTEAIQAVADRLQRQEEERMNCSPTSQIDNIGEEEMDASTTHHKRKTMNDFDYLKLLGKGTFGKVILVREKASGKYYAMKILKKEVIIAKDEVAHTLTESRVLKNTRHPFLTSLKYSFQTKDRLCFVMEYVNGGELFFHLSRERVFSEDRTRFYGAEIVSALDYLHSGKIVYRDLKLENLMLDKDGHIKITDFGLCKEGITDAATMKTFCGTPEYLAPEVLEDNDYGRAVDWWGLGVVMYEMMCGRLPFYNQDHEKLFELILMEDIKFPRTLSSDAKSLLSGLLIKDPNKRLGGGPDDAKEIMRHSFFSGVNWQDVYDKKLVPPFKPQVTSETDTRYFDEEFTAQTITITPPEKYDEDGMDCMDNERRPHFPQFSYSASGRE
# Akt1 [1] = target: Akt1 (Homo sapiens, UniProt P31749); assay: STK HTRF KinEASE activity-based assay (IC50)
# Chain of Akt1 (Homo sapiens, UniProt P31749) (P31749 whole entry): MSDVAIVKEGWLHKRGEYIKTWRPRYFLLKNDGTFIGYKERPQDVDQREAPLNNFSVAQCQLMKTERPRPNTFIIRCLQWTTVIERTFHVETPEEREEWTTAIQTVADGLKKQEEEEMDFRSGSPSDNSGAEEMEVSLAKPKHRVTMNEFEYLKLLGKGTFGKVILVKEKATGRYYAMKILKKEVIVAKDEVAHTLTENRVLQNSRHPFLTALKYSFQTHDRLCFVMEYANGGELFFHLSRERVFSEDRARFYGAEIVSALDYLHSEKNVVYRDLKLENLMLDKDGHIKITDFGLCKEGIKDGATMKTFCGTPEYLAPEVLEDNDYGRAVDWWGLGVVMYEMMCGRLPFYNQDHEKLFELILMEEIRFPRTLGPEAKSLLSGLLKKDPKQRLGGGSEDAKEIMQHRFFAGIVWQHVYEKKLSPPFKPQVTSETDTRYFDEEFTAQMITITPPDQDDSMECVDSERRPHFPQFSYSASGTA
# parental Ba/F3 cells = assay: CellTiter-Glo cell viability assay; assay type: cell-based, murine
# Ba/F3^myr-Akt2 cells = assay: CellTiter-Glo cell viability assay
# Ba/F3^myr-Akt3 cells = assay: CellTiter-Glo cell viability assay
# Ba/F3^myr-Akt1 cells = assay: CellTiter-Glo cell viability assay
# Akt1 [2] = target: T1, Akt1 (Homo sapiens, UniProt P31749, E114A/E115A/E116A); assay: ESI-MS/MS of tryptic digest (modified cysteine residues); assay type: binding; conditions: 5-fold molar excess of inhibitor
# T1 construct: AKT1(2–446, E114/115/116A); His6 with TEV protease recognition site (N, cleaved yes); made in house; host or cells: Spodoptera frugiperda (Sf9)
# T1 sequence (P31749 2-446 E114A/E115A/E116A): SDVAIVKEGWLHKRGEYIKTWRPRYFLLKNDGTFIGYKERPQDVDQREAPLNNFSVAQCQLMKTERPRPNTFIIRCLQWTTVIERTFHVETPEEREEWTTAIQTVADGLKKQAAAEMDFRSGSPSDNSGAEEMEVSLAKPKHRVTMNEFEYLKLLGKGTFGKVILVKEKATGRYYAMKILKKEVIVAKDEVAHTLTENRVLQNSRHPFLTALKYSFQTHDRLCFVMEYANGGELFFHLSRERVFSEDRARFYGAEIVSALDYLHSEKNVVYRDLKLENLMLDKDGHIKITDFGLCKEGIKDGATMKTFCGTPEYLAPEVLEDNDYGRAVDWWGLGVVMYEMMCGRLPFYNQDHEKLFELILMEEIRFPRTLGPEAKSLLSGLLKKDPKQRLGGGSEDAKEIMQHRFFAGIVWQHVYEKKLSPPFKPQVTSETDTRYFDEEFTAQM
# Procedure: ESI-MS/MS samples were prepared as stated above followed by steps of reduction, alkylation, and tryptic digest. The digested samples were stage tip-purified using C18 tips and according to a protocol described elsewhere. Subsequently, samples were thawed, dissolved in 20 μL of 0.1% TFA in water, sonicated at room temperature for 15 min, and centrifuged at 15,000×g for 1 min shortly before analysis. In all, 3 μL of sample were loaded onto a pre-column cartridge and desalted for 5 min using 0.1% TFA in water as eluent at a flow rate of 30 μL/min. The samples were back-flushed from the pre-column to the nano-HPLC column during the whole analysis. Elution was performed using a gradient starting at 5% B with a final composition of 30% B after 35 min (flow rate 300 nL/min) using 0.1% formic acid in water as eluent A and 0.1% formic acid in acetonitrile as eluent B and a column temperature of 40 °C. […] During the complete gradient cycle, a typical TOP10 shot-gun proteomics method for the MS and MS/MS analysis was used. For full scan MS experiments a mass range of m/z 300–1650 was scanned with a resolution of 70000. MS/MS experiments were followed by up to 10 high energy collision dissociation (HCD) MS/MS scans with a resolution of 17,500 of the most intense at least doubly charged ions. Data evaluation was performed using MaxQuant[50]. Spectra were searched against the specific Akt sequence and a contamination database using a false discovery rate of 1% on peptide and protein level using a decoy database for determination of the false discovery rate. For database search oxidation of methionine and N-terminal acetylation of proteins, carbamidomethylation of cysteines, and artificial modification of cysteines were defined as variable modifications.
# [3] = cell viability assay Ba/F3 myr-Akt cells, log units
# Chain of Akt2 (P31751 whole entry): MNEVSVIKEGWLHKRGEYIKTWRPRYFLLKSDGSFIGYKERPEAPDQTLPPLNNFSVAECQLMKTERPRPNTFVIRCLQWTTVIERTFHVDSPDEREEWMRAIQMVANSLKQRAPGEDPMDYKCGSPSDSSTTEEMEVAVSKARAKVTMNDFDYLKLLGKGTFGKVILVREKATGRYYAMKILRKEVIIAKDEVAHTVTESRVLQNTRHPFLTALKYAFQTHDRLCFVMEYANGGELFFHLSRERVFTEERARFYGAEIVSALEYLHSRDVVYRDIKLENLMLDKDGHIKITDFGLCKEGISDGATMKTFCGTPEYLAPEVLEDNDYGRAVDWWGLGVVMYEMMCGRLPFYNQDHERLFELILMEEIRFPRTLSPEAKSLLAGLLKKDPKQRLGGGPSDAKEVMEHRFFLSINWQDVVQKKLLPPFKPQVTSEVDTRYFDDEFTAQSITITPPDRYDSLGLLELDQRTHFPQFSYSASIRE
smiles,measurement,setting,value
C=CC(=O)Nc1ccc2[nH]c(=O)n(C3CCN(Cc4ccc(-c5ncc(C(=O)NC)cc5-c5ccccc5)cc4)CC3)c2c1 [compound 6],IC50,"Akt2; HTRF IC50 Akt2, individual determinations, single replicates",0.0841 µM and 0.151 µM and 0.0886 µM
same,IC50,"Akt2; IC50 Akt2, HTRF, ATP at KM, 1 h preincubation",0.108 ± 0.031 µM
same,IC50,"Akt3; HTRF IC50 Akt3, Mean, mean of replicates",5.75 µM
same,IC50,"Akt3; HTRF IC50 Akt3, individual determinations, single replicates",5.69 µM and 3.89 µM and 7.68 µM
same,IC50,"Akt3; IC50 Akt3, HTRF, ATP at KM, 1 h preincubation",5.75 ± 1.55 µM
same,loss of activity compared to the ester version,"Akt1 [1]; Akt1, biochemical IC50",4 fold
same,IC50,"Akt1 [1]; HTRF IC50 Akt1, Mean, mean of replicates",0.112 µM
same,IC50,"Akt1 [1]; HTRF IC50 Akt1, individual determinations, single replicates",0.113 µM and 0.133 µM and 0.0909 µM
same,IC50,"Akt1 [1]; IC50 Akt1, HTRF, ATP at KM, 1 h preincubation",0.112 ± 0.021 µM
same,"Log ratio IC50 [Akt] / IC50 [Akt], Akt1 / Akt2","Akt1 [1]; biochemical activity based assay, log units",0.02
same,EC50,"parental Ba/F3 cells; Mus musculus, BaF3, CTG, parental BaF3 cell line, read-out: EC50 BaF3",> 30 µM
same,EC50,"parental Ba/F3 cells; Mus musculus, BaF3, parental cells, mean of replicates, read-out: CTG BaF3, Mean",> 30 µM
same,EC50,"parental Ba/F3 cells; Mus musculus, BaF3, parental cells, single replicates, read-out: CTG BaF3, individual determinations",> 30 µM
same,EC50,"parental Ba/F3 cells; parental cells, single replicates, read-out: CTG BaF3, individual determinations",> 30 µM
same,EC50,"Ba/F3^myr-Akt2 cells; Mus musculus, read-out: CTG BaF3myr-Akt2, Mean, mean of replicates",10.8 µM
same,EC50,"Ba/F3^myr-Akt2 cells; Mus musculus, read-out: CTG BaF3myr-Akt2, individual determinations, single replicates",12.6 µM
same,EC50,"Ba/F3^myr-Akt2 cells; read-out: CTG BaF3myr-Akt2, individual determinations, single replicates",7.18 µM and 12.6 µM
same,EC50,"Ba/F3^myr-Akt3 cells; Mus musculus, read-out: CTG BaF3myr-Akt3, individual determinations, single replicates",> 30 µM
same,"Log ratio EC50 [Akt] / EC50 [Akt], Akt3 / Akt2",Ba/F3^myr-Akt3 cells; [3],-0.38
same,EC50,"Ba/F3^myr-Akt3 cells; read-out: CTG BaF3myr-Akt3, individual determinations, single replicates",22.6 µM and 24.5 µM
same,EC50,"Ba/F3^myr-Akt1 cells; Mus musculus, read-out: CTG BaF3myr-Akt1, Mean, mean of replicates",9.61 µM
same,EC50,"Ba/F3^myr-Akt1 cells; Mus musculus, read-out: CTG BaF3myr-Akt1, individual determinations, single replicates",7.7 µM
same,"Log ratio EC50 [Akt] / EC50 [Akt], Akt1 / Akt2",Ba/F3^myr-Akt1 cells; [3],-0.05
same,EC50,"Ba/F3^myr-Akt1 cells; read-out: CTG BaF3myr-Akt1, individual determinations, single replicates",11.7 µM and 9.47 µM
same,modified cysteine residues in Akt1 (MS/MS),Akt1 [2],Cys296 and Cys310
